According to paper PMC6114901, “An automated screening method for detecting compounds with goitrogenic activity using transgenic zebrafish embryos” (PLoS ONE, 2018):
Where two headings read alike, the source gives them in different places.

Legend:
zebrafish embryos = experiment: in vivo; conditions: for LC10: unit not given, in µM; for Slope: mortality concentration-response curve
Description: Fish embryo acute toxicity tests were performed similar as described previously, using 10 or 25 embryos per concentration and replicate exposed in crystallization dishes from 48 to 120 hpf. No exchange of exposure media was performed. Lethality was identified by coagulation, missing heartbeat, a non–detached tail and/or missing of somites. Raw data for mortality and phenotypic assessment are provided as S1 Table. Concentration-response curves for mortality are shown in S2 Fig.

[1] = system: thyroid hormone levels (T4); conditions: ref Thienpont et al. [13], cited from earlier work
[2] = 72 hpf, 15000 µmol/L, replicate 2, 10 embryos
[3] = 72 hpf, 30000 µmol/L, replicate 2, 10 embryos
[4] = 72 hpf, 50000 µmol/L, replicate 1, 10 embryos
[5] = 72 hpf, 100000 µmol/L, replicate 1, 10 embryos
[6] = 96 hpf, 20000 µmol/L, replicate 2, 10 embryos
[7] = 96 hpf, 25000 µmol/L, replicate 2, 10 embryos
[8] = 96 hpf, 30000 µmol/L, replicate 2, 10 embryos
[9] = 96 hpf, 50000 µmol/L, replicate 1, 10 embryos
[10] = 96 hpf, 50000 µmol/L, replicate 2, 10 embryos
[11] = 96 hpf, 100000 µmol/L, replicate 1, 10 embryos
[12] = 120 hpf, 10000 µmol/L, replicate 1, 10 embryos
[13] = 120 hpf, 15000 µmol/L, replicate 2, 10 embryos
[14] = 120 hpf, 20000 µmol/L, replicate 2, 10 embryos
[15] = 120 hpf, 25000 µmol/L, replicate 1, 10 embryos
[16] = 120 hpf, 25000 µmol/L, replicate 2, 10 embryos
[17] = 120 hpf, 30000 µmol/L, replicate 2, 10 embryos
[18] = 120 hpf, 40000 µmol/L, replicate 2, 10 embryos
[19] = 120 hpf, 50000 µmol/L, replicate 1, 10 embryos
[20] = 120 hpf, 50000 µmol/L, replicate 2, 10 embryos
[21] = 120 hpf, 100000 µmol/L, replicate 1, 10 embryos

[K+].[O-][Cl+3]([O-])([O-])[O-] [Potassium perchlorate, potassium perchlorate]
No Surviving (zebrafish embryos; 72 hpf, 1000 µmol/L, replicate 1, 10 embryos): 10 | No Surviving (zebrafish embryos; 72 hpf, 5000 µmol/L, replicate 1, 10 embryos): 10 | No Surviving (zebrafish embryos; 72 hpf, 10000 µmol/L, replicate 1, 10 embryos): 10 | No Surviving (zebrafish embryos; [2]): 10 | Sublethal effects mtail (zebrafish embryos; [2]): 1 | No Surviving (zebrafish embryos; 72 hpf, 20000 µmol/L, replicate 2, 10 embryos): 10 | No Surviving (zebrafish embryos; 72 hpf, 25000 µmol/L, replicate 1, 10 embryos): 10 | No Surviving (zebrafish embryos; 72 hpf, 25000 µmol/L, replicate 2, 10 embryos): 10 | Lethal effects k/f (zebrafish embryos; [3]): 1 | No Surviving (zebrafish embryos; [3]): 9 | No Surviving (zebrafish embryos; 72 hpf, 40000 µmol/L, replicate 2, 10 embryos): 10 | Lethal effects k/f (zebrafish embryos; [4]): 3 | No Surviving (zebrafish embryos; [4]): 7 | Sublethal effects tip (zebrafish embryos; [4]): 1 | No Surviving (zebrafish embryos; 72 hpf, 50000 µmol/L, replicate 2, 10 embryos): 10 | Lethal effects nohb (zebrafish embryos; [5]): 1 | No Surviving (zebrafish embryos; [5]): 9 | Sublethal effects Total Sublethal (zebrafish embryos; [5]): 8 | Sublethal effects beh (zebrafish embryos; [5]): 5 | Sublethal effects nomov (zebrafish embryos; [5]): 3 | No Surviving (zebrafish embryos; 96 hpf, 1000 µmol/L, replicate 1, 10 embryos): 10 | No Surviving (zebrafish embryos; 96 hpf, 5000 µmol/L, replicate 1, 10 embryos): 10 | No Surviving (zebrafish embryos; 96 hpf, 10000 µmol/L, replicate 1, 10 embryos): 10 | No Surviving (zebrafish embryos; 96 hpf, 15000 µmol/L, replicate 2, 10 embryos): 10 | Lethal effects nohb (zebrafish embryos; [6]): 3 | No Surviving (zebrafish embryos; [6]): 7 | Sublethal effects Total Sublethal (zebrafish embryos; [6]): 1 | Sublethal effects mtail (zebrafish embryos; [6]): 1 | No Surviving (zebrafish embryos; 96 hpf, 25000 µmol/L, replicate 1, 10 embryos): 10 | Lethal effects nohb (zebrafish embryos; [7]): 6 | No Surviving (zebrafish embryos; [7]): 4 | Sublethal effects Total Sublethal (zebrafish embryos; [7]): 4 | Sublethal effects nobc (zebrafish embryos; [7]): 4 | Lethal effects k/f (zebrafish embryos; [8]): 1 | Lethal effects nohb (zebrafish embryos; [8]): 9 | No Surviving (zebrafish embryos; 96 hpf, 40000 µmol/L, replicate 2, 10 embryos): 10 | Lethal effects k/f (zebrafish embryos; [9]): 1 | Lethal effects nohb (zebrafish embryos; [9]): 4 | No Surviving (zebrafish embryos; [9]): 5 | Sublethal effects Total Sublethal (zebrafish embryos; [9]): 3 | Sublethal effects nobc (zebrafish embryos; [9]): 2 | Sublethal effects nomov (zebrafish embryos; [9]): 1 | Sublethal effects tip (zebrafish embryos; [9]): 1 | Lethal effects k/f (zebrafish embryos; [10]): 1 | No Surviving (zebrafish embryos; [10]): 9 | Lethal effects nohb (zebrafish embryos; [11]): 10 | No Surviving (zebrafish embryos; [11]): 0 | Sublethal effects nobc (zebrafish embryos; [11]): 10 | No Surviving (zebrafish embryos; 120 hpf, 1000 µmol/L, replicate 1, 10 embryos): 10 | No Surviving (zebrafish embryos; 120 hpf, 5000 µmol/L, replicate 1, 10 embryos): 10 | Lethal effects nohb (zebrafish embryos; [12]): 1 | No Surviving (zebrafish embryos; [12]): 9 | Sublethal effects EdY / EdP (zebrafish embryos; [12]): 1 | Sublethal effects Total Sublethal (zebrafish embryos; [12]): 1 | Lethal effects k/f (zebrafish embryos; [13]): 1 | Lethal effects nohb (zebrafish embryos; [13]): 5 | No Surviving (zebrafish embryos; [13]): 4 | Sublethal effects Total Sublethal (zebrafish embryos; [13]): 5 | Sublethal effects mtail (zebrafish embryos; [13]): 5 | Lethal effects k/f (zebrafish embryos; [14]): 4 | No Surviving (zebrafish embryos; [14]): 6 | Sublethal effects Total Sublethal (zebrafish embryos; [14]): 6 | Sublethal effects nobc (zebrafish embryos; [14]): 6 | Lethal effects nohb (zebrafish embryos; [15]): 9 | No Surviving (zebrafish embryos; [15]): 1 | Sublethal effects Total Sublethal (zebrafish embryos; [15]): 1 | Sublethal effects nobc (zebrafish embryos; [15]): 1 | Lethal effects k/f (zebrafish embryos; [16]): 4 | Lethal effects nohb (zebrafish embryos; [16]): 2 | No Surviving (zebrafish embryos; [16]): 4 | Sublethal effects Total Sublethal (zebrafish embryos; [16]): 4 | Sublethal effects nobc (zebrafish embryos; [16]): 4 | Lethal effects k/f (zebrafish embryos; [17]): 1 | No Surviving (zebrafish embryos; [17]): 9 | Sublethal effects Total Sublethal (zebrafish embryos; [17]): 9 | Sublethal effects nobc (zebrafish embryos; [17]): 9 | Lethal effects k/f (zebrafish embryos; [18]): 1 | Lethal effects nohb (zebrafish embryos; [18]): 2 | No Surviving (zebrafish embryos; [18]): 7 | Sublethal effects Total Sublethal (zebrafish embryos; [18]): 7 | Sublethal effects nobc (zebrafish embryos; [18]): 7 | Lethal effects nohb (zebrafish embryos; [19]): 4 | No Surviving (zebrafish embryos; [19]): 6 | Sublethal effects Total Sublethal (zebrafish embryos; [19]): 6 | Sublethal effects nobc (zebrafish embryos; [19]): 6 | Lethal effects k/f (zebrafish embryos; [20]): 4 | Lethal effects nohb (zebrafish embryos; [20]): 1 | No Surviving (zebrafish embryos; [20]): 5 | Sublethal effects Total Sublethal (zebrafish embryos; [20]): 5 | Sublethal effects nobc (zebrafish embryos; [20]): 5 | Lethal effects nohb (zebrafish embryos; [21]): 10 | No Surviving (zebrafish embryos; [21]): 0 | LC50 (zebrafish embryos; mortality after 48 h of exposure, S2 Fig, unit inferred): 50.3 mM | LC10 (zebrafish embryos; mortality after 48 h of exposure, S2 Fig): 10862 | LC50 (zebrafish embryos; mortality after 72 h of exposure, S2 Fig, unit inferred): 33.1 mM | LC10 (zebrafish embryos; mortality after 72 h of exposure, S2 Fig): 3232 | Slope (zebrafish embryos; 48 h of exposure): 1.43 | Slope (zebrafish embryos; 72 h of exposure): 0.944 | LC50 (zebrafish embryos; read-out: LC50 (48–120 hpf), mortality, embryos exposed 48–120 hpf): 33.1 mM | EC50 ([1]; read-out: EC50 T4 reduction, reduction of thyroid hormone levels (immunostaining)): 0.0025 mM | TDI (T4) ([1]; thyroid disruption index based on T4 reduction): 6030
